We go through two substances from patent publication US7060808B1, “Humanized anti-EGF receptor monoclonal antibody” (ImClone Systems Incorporated, priority 1995, dated 2006).

This test has as its system A431 cells. The test can be described thus: Inhibition of A431 cells by 225-CDR peptides (3H-thymidine). The class given is cell-based, human. The note with it: 72 hours, FIG. 5. On the procedure:
These peptides were dissolved in PBS at a concentration of 1 mg/ml. A431 cells were plated at 1000 cells per well in 96 well plates. Peptides were added at various concentrations. […] Plates were incubated for 72 hours at 37° C. and pulsed overnight with ^3H-thymidine. Cells were harvested and counted in a liquid scintillation counter. Percent inhibition is defined as the decrease in 3-H thymidine incorporation of antibody or peptide treated cells compared to cells grown in the absence of antibody or peptide.

GVIWSGGNTDYNTPFTSR [heavy chain CDR-2]: the “inhibition of A431 cells (3H-thymidine incorporation)” value is reported as “inhibited”. With NYGVH [heavy chain CDR-1] the entry was “inhibited”.
